We go through two molecules from patent publication US11707445B2, “Composition for blocking angiogenesis” (Indiana University Research and Technology Corporation, priority 2015, dated 2023).

In one series the test system is mouse choroidal tissues. In words: Choroidal sprouting assay (ex vivo). Type of series: cell-based, C57Bl/6J mice. The method, then: Sprouting of choroidal layers was tested as previously described in Shao et a., PLoS One, 2013 8(7): e69552. Briefly, 6-8 week old C57Bl/6J mice eyes were enucleated immediately after euthanasia. Peripheral parts of the choroid/sclera layer were separated and cut into pieces. Choroid fragments were then placed on growth factor-reduced Matrigel™ (30 μL/well; BD Biosciences, San Jose, Calif.) in 24-well plates. The plates were then incubated at 37° C. for about 10 minutes to allow the Matrigel to solidify. Endothelial Growth Medium (EGM-2) was prepared by mixing the contents of an EGM-2 “Bullet Kit” (Cat no. CC-4176) with Endothelial Basal Medium (EBM) (Lonza, Walkersville, Md.). Penicillin-streptomycin and 2.5 mg/mL Plasmocin were added to the final medium and used for this assay. Medium (500 μL) was added to each well of the plate and incubated at 37° C. with 5% CO2 for 72 hours before any treatments were added. Medium was changed after 48 hours. SH-11037 was synthesized as taught in WO2014/182695 (incorporated by reference to the extent it is consistent herewith) and dissolved in DMSO and then tested at 0.03, 0.3, and 1 μM concentrations for 48 hours. The final concentration of DMSO in each well was 0.2%. Trypan blue 0.4% solution (Fisher Scientific, Pittsburgh, Pa., USA) was used to assess cell viability. Images were taken using an EVOS-fl digital microscope (AMG, Mill Creek, Wash., USA) and data were analyzed as the sprouting distance in four different directions using ImageJ software v. 1.48V.

The subject of series [1] is retina. Nature of the series: In vivo toxicity of intravitreally injected SH-11037 (histology, immunofluorescence). Further details: species or system C57BL/6J mice. The procedure:
(§1) All mouse experiments followed the guidelines of the Association for Research in Vision and Ophthalmology Statement for the Use of Animals in Ophthalmic and Visual Research and were approved by the Indiana University School of Medicine Institutional Animal Care and Use Committee. Wild-type female C57BL/6J mice, 6-8 weeks of age, were purchased from the Jackson Laboratory (Bar Harbor, Me.). Intraperitoneal injections of 17.5 mg/kg ketamine hydrochloride and 2.5 mg/kg xylazine mixture were used for anesthesia.
(§2) Injections were given under anesthesia in a 0.5 μL volume using a 33-gauge needle. The needle was kept in place for 1 minute to prevent the reflux of solution when the needle was removed. SH-11037 was dissolved in DMSO then diluted in PBS to a final concentration of 0.5% DMSO. Eyes were numbed with tetracaine solution before the injection, and triple antibiotic ointment was used immediately after the injection to prevent infection. A masked researcher undertook imaging and analysis to avoid bias.
Toxicity of intravitreally injected SH-11037 was initially assessed by histology and immunofluorescence. The presence of acute ocular toxicity was investigated by injecting SH-11037 at different concentrations (0.1, 1, 10, and 100 μM), while long-term effects were tested by injecting 10 μM SH-11037. Mice were sacrificed 3 and 14 days post injections, respectively. Eyes were enucleated and fixed in 4% PFA overnight, and then the eyes were paraffin embedded and sectioned at 5 μm thickness by the Indiana University School of Medicine Histology Core. Mayer's hematoxylin and eosin (H&E) staining was performed, and retinal morphology was quantified by calculating the ratio of A (the distance from the ganglion cell layer to the outer edge of the inner nuclear layer) to B (the distance from the ganglion cell layer to the outer edge of the outer nuclear layer).
For immunofluorescence, sections were deparaffinised with xylenes and ethanol series and boiled in citrate buffer for 5 minutes. […]

The next series deals with neural retina function. Nature of the series: Retinal electrophysiology (ERG) after intravitreal injection. Type of series: in vivo, C57BL/6J mice. Conditions: 14 days after 100 μM SH-11037 injections, relative to control eyes. The method, then: as §1
Injections were given under anesthesia in a 0.5 μL volume using a 33-gauge needle. The needle was kept in place for 1 minute to prevent the reflux of solution when the needle was removed. […]
Electroretinograms (ERG) were obtained from animals 14 days post intravitreal injection of 100 μM SH-11037, 0.2 ng mouse anti-VEGF neutralizing antibody (R&D Systems, Minneapolis, Minn., USA)+0.3 μM SH-11037, or vehicle control and performed as described in Cai et al., EMBO Mol Med, 2012 4(9):980-91. Briefly, scotopic rod recordings were performed on overnight dark-adapted mice, with 10 increasing light intensities of white light and responses were recorded with a visual electrodiagnostic system (UTAS-E 2000; LKC Technologies, Gaithersburg, Md.). […] Ten responses were recorded and averaged at each light intensity. […]

The subject of another series is CNV lesions. Nature of the series: Laser-induced choroidal neovascularization (L-CNV) model. Type of series: in vivo, C57BL/6J mice. The settings on record: for reduction in CNV lesion volume (Z-stack images of agglutinin-stained choroidal flatmounts): day 14, vs vehicle control; for reduction of CNV lesion volume: day 14, vs control eyes, P<0.01. The procedure: as §1, §2
Laser photocoagulation was performed as described in Sulaiman et al., J Ocul Pharmacol Ther, 2015 and Poor et al., Invest Opthalmol Vis Sci, 2014 55(10): 6525-34. Briefly, eyes were dilated using 1% tropicamide, then underwent laser treatment using 50 μm spot size, 50 ms duration, and 250 mW pulses of an ophthalmic argon green laser, wavelength 532 nm, coupled to a slit lamp. A coverslip was used to allow viewing of the posterior pole of the eye. Each eye received 3 laser burns centered around the optic nerve at 12, 3, and 9 o'clock positions. The appearance of a bubble at the site of laser application was used to identify laser-induced damage of Bruch's membrane. Lesions in which bubbles were not observed were excluded from analysis. The effect of SH-11037 on the L-CNV model using final estimated vitreal concentrations of 0.1, 0.3, 1, or 10 μM SH-11037 was tested. Anti-mouse VEGF164 neutralizing antibody (R&D Systems, Minneapolis, Minn.) was tested at 0.2, 1, and 5 ng/eye. Vehicle (PBS+0.5% DMSO) was used as a negative control. All injections were given a single time, immediately after laser treatment. In testing the effects of SH-11037 on existing L-CNV lesions, vehicle, anti-VEGF164, and SH-11037 (10 μM) injections were given a single time, 5 days post laser.
Optical coherence tomography (OCT) was performed at the indicated times using the Micron III intraocular imaging system (Phoenix Research Labs, Pleasanton, Calif.). Before the procedure, eyes were dilated with 1% tropicamide solution (Alcon, Fort Worth, Tex.) and lubricated with hypromellose ophthalmic demulcent solution (Gonak) (Akorn, Lake Forest, Ill.). Mice were then placed on a custom heated stage that moves freely to position the mouse eye for imaging. Several horizontal and vertical images were taken per lesion to allow calculation of CNV lesion volume. Three-dimensional quantification of CNV lesion volumes was performed using an ellipsoid quantification method as described in Sulaiman et al., J Ocul Pharmacol Ther, 2015, 31(8):447-54. FA was performed 14 days post laser by intraperitoneal injections of 50 μL of 25% fluorescein sodium (Fisher Scientific, Pittsburgh, Pa.). Fundus images were taken using the Micron III system and Streampix software.
Choroidal flatmount preparation, staining, and imaging were done as described in Sulaiman et al., J Ocul Pharmacol Ther, 2015, 31(8):447-54. ImageJ software was used to analyze Z-stack images; the summation of the whole stained area in each section, multiplied by the distance between sections (3 μm) was used as an index for the CNV lesion volume. The volumes of the 3 lesions in each eye were averaged and considered as an n=1 for statistical analysis.

In series [2] the test system is pre-existing retinal vasculature. In words: Staining of pre-existing retinal vasculature (isolectin B4 retina flatmounts). Type of series: in vivo, C57BL/6J mice. Conditions: 14 days after 100 μM intravitreal injection, vs vehicle control.
The subject of series [3] is retinal neovascularization. The settings on record: in vivo; cited from earlier work.
Series [4] relates to human retinal endothelial cells (HRECs). The settings on record: cited from earlier work.
Series [5] concerns new vessel growth induced by bFGF. Conditions: chick chorioallantoic membrane; cited from earlier work.
The subject of series [6] is choroidal neovascularization. Conditions: mouse, in vivo; cited from earlier work.
Series [7] has as its system retina. The settings on record: 10 μM into the vitreous of normal adult mice; cited from earlier work.

Regarding `COc1ccc(CC2COc3cc(OC)c(OC)c(OC)c3C2=O)cc1OC(=O)[C@H](Cc1ccccc1)NC(=O)OC(C)(C)C` (some centres unmarked) [SH-11037], the “ability of choroidal tissues to form sprouts (sprouting distance)” value in the series with mouse choroidal tissues (0.03, 0.3, 1 μM, 48 hours, concentration-dependent, vs vehicle treated controls) is reported as “significantly inhibited”. In addition, the “cell viability of choroidal sprouts by Trypan blue staining” value in the series with mouse choroidal tissues (48 hours, 1 μM SH-11037 vs DMSO controls) is “absence of significant cell death”. Besides, the “potent inhibitory concentration in choroidal sprouting” value in the series on mouse choroidal tissues (ex vivo choroid microvascular tissue) amounted to 0.03 µM. Further, the “retinal thickness (A/B ratio) morphological changes” value with retina [1] (intravitreal SH-11037, 3 and 14 days post injections, vs vehicle-treated and uninjected eyes) was “absence of morphological changes”. In the series on retina [1] (intravitreal SH-11037, 3 and 14 days, vs vehicle-treated controls), the “GFAP, cleaved caspase 3, TUNEL staining and MCP1 (retinal injury, apoptosis, inflammation)” value is recorded as “Neither shorter-nor longer-term SH-11037 treated retina showed any significant increases”. Further, the “histological changes in H&E stained retinal sections” value in the series on retina [1] (intravitreal SH-11037 up to 100 μM final concentration, 3 and 14 days post injection, vs vehicle and no injection control eyes) is “no histological changes”. The “ERG scotopic a- and b-waves, and photopic b-waves” value in the series with neural retina function is given as “not significantly different”. The “reduction in CNV lesion volume (Z-stack images of agglutinin-stained choroidal flatmounts)” value in the series on CNV lesions (0.1 μM intravitreal) and in the series on CNV lesions (0.3 μM intravitreal) was “no reduction” throughout. For the same molecule, the “reduction of CNV lesion volume” value in the series with CNV lesions (1 μM intravitreal) is on record as “about 42%”; in the series on CNV lesions (10 μM intravitreal), around 55%. For the same molecule, in the series with CNV lesions (10 μM intravitreal single injection 5 days post laser, quantified 14 days post laser), the “vascular volumes of pre-existing CNV lesions relative to vehicle” value is “significantly suppressed”. Moreover, in the series on CNV lesions (14 days post laser, relative to vehicle treatment), the “leakiness of CNV lesions by fluorescein angiography” value is “reduced leakiness”. For the same molecule, in the series with CNV lesions (injection 5 days post laser (10 μM SH-11037; 5 ng anti-VEGF164)), the “CNV vascular volumes at day 14 versus 5 days control” value is given as “no significant difference”. The “CNV lesion volumes by OCT, ellipsoid volume quantification” value in the series with CNV lesions (intravitreal 0.1, 0.3, 1, 10 μM immediately after laser, 7 days post-laser, vs vehicle, dose-dependent) is reported as “significantly lower”. For the same molecule, in series [2], the “changes in pre-existing retinal vessels” value is “No changes”. In addition, the “pathogenic retinal neovascularization in OIR model” value in [3] is on record as “significantly suppressed”. Besides, the “induction of apoptosis in HRECs” value in series [4] is listed as “without inducing apoptosis”. Further, the HREC migration result in series [4] (concentration-dependent) is “inhibited”. Also, the HREC proliferation entry in [4] (concentration-dependent) is on record as “inhibited”. For the same molecule, in series [4] (concentration-dependent), the HREC tube formation entry is “inhibited”.
Consider `COc1ccc(CC2COc3cc(O)c(OC)c(O)c3C2=O)cc1O` (centres unmarked) [cremastranone, 5,7-dihydroxy-3-(3-hydroxy-4-methoxybenzyl)-6-methoxychroman-4-one], for which, in series [5], the “blocking new vessel growth induced by bFGF” value is “as effective as retinoic acid”. Moreover, the “pathogenic retinal neovascularization in OIR model” value in series [3] is recorded as “showed efficacy”. In addition, in series [6], the “pathogenic neovascularization in laser photocoagulation CNV model” value is “showed efficacy”. In addition, in the series with retina [7], the “apoptosis of retinal cells” value is on record as “nor did it induce apoptosis” and the “cytotoxic or inflammatory effects on the retina” value is reported as “no cytotoxic or inflammatory effects”.
